Assays:
[1] = Dose dependence of 13CO2 concentration in expired air after oral 2-13C-labeled uracil (Example 3); format: in vivo, beagle dogs; details: dose of 10 to 80 μmol/kg body weight, FIGS. 5 and 6
Procedure: In 50 ml portions of 0.05N sodium hydroxide, 56.5 mg, 113.1 mg, 226.2 mg, and 452.3 mg of 2-^13C-labeled uracil (Cambridge Isotope Laboratory) were dissolved separately, to prepare solutions with concentrations of 10 μmol/ml, 20 μmol/ml, 40 μmol/ml, and 80 μmol/ml, respectively. The solutions were forcibly administered orally to fasted male beagle dogs (n=3) using oral tubes for dogs, in an amount of 1 ml/kg body weight (dose: […]), and thereafter water was forcibly administered orally in an amount of 2 ml/kg body weight. The expired air was collected before administration, and after 15, 30, 45, 60, 75, 90, 105, 120, 135, 150, 180, 210, and 240 minutes after administration. Then, the ^13C-labeled carbon dioxide concentration in the expired air was measured, and pharmacokinetic parameters (the area under the curve (AUC) and maximum ^13C-labled carbon dioxide concentration (Cmax)) were calculated from the obtained transition curve of the ^13C-labeled carbon dioxide concentration in the expired air.

[2] = biological target: T1, dihydropyrimidine dehydrogenase (DPD) (Canis lupus familiaris, UniProt A0A8I3P1X8); assay: 13CO2 excretion in expired air after oral administration of 2-13C-labeled uracil preparation (Example 2); format: in vivo; details: FIG. 3
T1 construct: Fasted beagle dogs were used as experimental animals; from tissue; host or cells: whole living beagle dogs (in vivo)
T1 sequence (A0A8I3P1X8 1-1026): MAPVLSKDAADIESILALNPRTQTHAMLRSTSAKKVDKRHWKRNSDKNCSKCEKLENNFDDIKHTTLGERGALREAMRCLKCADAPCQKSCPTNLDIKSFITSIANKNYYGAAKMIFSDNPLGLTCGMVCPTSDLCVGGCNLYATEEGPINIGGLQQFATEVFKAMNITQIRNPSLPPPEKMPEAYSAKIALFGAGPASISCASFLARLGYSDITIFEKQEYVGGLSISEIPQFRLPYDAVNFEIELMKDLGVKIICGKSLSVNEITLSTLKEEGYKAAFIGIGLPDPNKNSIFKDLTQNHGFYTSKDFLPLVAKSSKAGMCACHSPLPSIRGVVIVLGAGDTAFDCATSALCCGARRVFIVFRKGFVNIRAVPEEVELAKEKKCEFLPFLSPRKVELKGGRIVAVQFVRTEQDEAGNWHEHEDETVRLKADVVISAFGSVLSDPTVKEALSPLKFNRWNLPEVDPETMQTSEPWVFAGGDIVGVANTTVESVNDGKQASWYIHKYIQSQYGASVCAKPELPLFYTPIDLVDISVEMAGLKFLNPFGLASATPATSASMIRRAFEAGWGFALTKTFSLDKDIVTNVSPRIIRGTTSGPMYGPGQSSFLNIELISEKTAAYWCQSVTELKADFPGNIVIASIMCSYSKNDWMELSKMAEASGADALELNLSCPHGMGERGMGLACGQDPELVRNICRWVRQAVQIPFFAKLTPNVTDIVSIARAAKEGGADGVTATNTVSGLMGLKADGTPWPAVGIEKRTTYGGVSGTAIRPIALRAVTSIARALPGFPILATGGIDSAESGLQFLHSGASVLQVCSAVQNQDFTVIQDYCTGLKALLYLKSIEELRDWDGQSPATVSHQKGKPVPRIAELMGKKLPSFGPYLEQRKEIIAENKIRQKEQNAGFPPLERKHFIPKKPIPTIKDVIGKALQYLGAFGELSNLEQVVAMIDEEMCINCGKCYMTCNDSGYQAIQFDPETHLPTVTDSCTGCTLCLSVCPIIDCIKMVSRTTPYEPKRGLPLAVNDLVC
Procedure: A preparation for determining the pyrimidine metabolic capacity in an oral form was prepared using the same 2-^13C-labeled uracil as used in Example 1 as an active ingredient, and tested for usefulness for measuring pyrimidine metabolic capacity.
2-^13C-labeled uracil (Cambridge Isotope Laboratory) (300 mg) was dissolved in 24 ml of 0.1N NaOH/saline solution (measured out from 200 ml of 0.1N NaOH/saline solution prepared by diluting 2 ml of 10N sodium hydroxide solution with physiological saline). Then, water was added to give 60 ml of a preparation for determining pyrimidine metabolic capacity in the form of an oral solution (containing 50 mg of 2-^13C-labeled uracil per 10 ml of the oral solution).
Fasted beagle dogs were used as experimental animals. In Group 1 (n=3), the preparation prepared above in (1) was orally administered (50 mg/10 ml/body) (test group). […] The concentration of ^13C-labeled carbon dioxide excreted in the expired air was measured in the same manner as in Example 1, using a GC-MS analyzer (ABCA-G, Europa Scientific). […]

[3] = biological target: T1, dihydropyrimidine dehydrogenase (DPD); assay: 13CO2 excretion in expired air after intravenous injection of 2-13C-labeled uracil preparation (Example 1); format: in vivo; details: FIG. 2
Procedure: Uracil having […] carbon at the 2-position (2-^13C-labeled uracil) was used as an isotope-labeled pyrimidine compound. A preparation for determining the pyrimidine metabolic capacity in the form of an intravenous injection comprising the 2-^13C-labeled uracil as an active ingredient was prepared and tested for usefulness for determining pyrimidine metabolic capacity.
Uracil-2-^13C (Cambridge Isotope Laboratory) (300 mg) was dissolved in 24 ml of 0.1N NaOH/saline solution (measured out from 200 ml of 0.1N NaOH/saline solution prepared by diluting 2 ml of 10N sodium hydroxide solution with physiological saline), to give a preparation for determining the pyrimidine metabolic capacity in the form of an intravenous injection (containing 50 mg of uracil-2-^13C per 4 ml of the injection).
(E)-5-(2-bromovinyl)-uracil (250 mg) and gum arabic (2.25 g) were mixed together, and the mixture was kneaded while adding a slight amount of water, to prepare 45 ml of a suspension (containing 83.3 mg of (E)-5-(2-bromovinyl)-uracil per 15 ml of the suspension).
Fasted beagle dogs were used as experimental animals. […] The concentration of ^13C-labeled carbon dioxide excreted in the collected expired air was measured using a GC-MS analyzer (ABCA-G, Europa Scientific). […]

[4] = system: pyrimidine metabolic pathway; details: administered to the body; Cancer (Phila), 68, 499-501, 1991; cited from earlier work
[5] = system: dihydropyrimidine dehydrogenase (DPD); details: Cancer Research 46, 1094-1101, 1986; cited from earlier work

Question: For `O=c1cc[nH][13c](=O)[nH]1` [2-^13C-labeled uracil], which “excretion kinetics in the expired air (AUC and Cmax versus dose)” value [1] is on record?
Answer: has linearity

Question: What about the “metabolism and excretion in the expired air as 13CO2” value ([2]; test group, fasted beagle dogs, oral 50 mg/10 ml/body, expired air 0-240 min) of the same molecule?
Answer: metabolized and excreted in the expired air as ^13CO2

Question: What about the “metabolism and excretion in the expired air as 13CO2” value ([3]; test group, fasted beagle dogs, intravenous injection 50 mg/body, expired air 0-240 min) of the same molecule?
Answer: metabolized and excreted in the expired air as ^13CO2

Question: For `O=c1[nH]cc(F)c(=O)[nH]1` [5-FU, 5-fluorouracil], which “share of administered 5-FU degraded in the pyrimidine metabolic pathway” value [4] is on record?
Answer: about 80%

Question: Which “excretion of 13CO2 in the expired air after DPD inhibitor pretreatment” value ([2]; DPD inhibitor 83.3 mg/15 ml/body orally 1 hour before oral 2-13C-labeled uracil 50 mg/10 ml/body, compared with test group) does the source give for `O=c1[nH]cc(/C=C/Br)c(=O)[nH]1` [(E)-5-(2-bromovinyl)-uracil] here?
Answer: markedly reduced

Question: And the DPD inhibitor activity [5]?
Answer: known as a dihydropyrimidine dehydrogenase (DPD) inhibitor

Question: And the “excretion of 13CO2 in the expired air after DPD inhibitor pretreatment” value ([3]; DPD inhibitor 83.3 mg/body orally 1 hour before intravenous 2-13C-labeled uracil 50 mg/body, compared with test group)?
Answer: markedly lower excretion
